Laboratory results published in patent US8569270B2, “Diphenyl sulfide derivatives and medicines containing same as active ingredient” (Kyorin Pharmaceutical Co., Ltd., priority 2009, dated 2013).

test system: IL-1β production; experiment: LPS induced sepsis model, IL-1β in tissue by ELISA; type: in vivo, C57BL/6J mouse; details: 10 mg/kg i.v. twice (15 min before and 2 h after LPS), 18 h after LPS, mouse lung
Description: The experiment was carried out with reference to the method described in Non-Patent Literature 5 (F. Nissen et al., Nature, 452, 654 (2008)). A solution of 1 mg/ml LPS (lipopolysaccharide) in physiological saline was intraperitoneally administered (10 ml/kg) to a C57BL/6J mouse (Charles River, male, 7 to 8 weeks). The test compound in an amount of 10 mg/kg was intravenously administered twice, 15 minutes before LPS administration and 2 hours after LPS administration. The mouse was dissected 18 hours after LPS administration, and the mesenteric lymph nodes and lungs were excised. The mesenteric lymph nodes were dissolved in 200 μl and the lungs in 1 ml of a dissolving buffer (30 mM Tris (pH7.4), 150 mM NaCl, 0.1% TritonX-100, 2 mM CaCl2, and 2 mM MgCl2). Non-dissolved matter was removed by centrifugal separation. The IL-1β in the tissue solutions was measured using an IL-1β ELISA Kit (Thermo Co., Ltd.). In Table 2, compounds having a suppression rate of 50% or more are indicated as “+++,” compounds having a suppression rate of 50%>suppression rate≧30% are indicated as “++,” and compounds having a suppression rate of 30%>suppression rate 20% are indicated as “+.”
The suppression rate was calculated using the following calculation equation. a=(1−X/Y)×100 [Equation 1] X: IL-1β PRODUCTION AMOUNT WHEN, 10 mg/kg OF TEST COMPOUND WAS ADMINISTERED TO RESPECTIVE TISSUE Y: IL-1β PRODUCTION AMOUNT WHEN TEST COMPOUND WAS NOT ADMINISTERED TO RESPECTIVE TISSUE a: SUPPRESSION RATE (%)

| Structure (SMILES) | Suppression Rate for Lung |
| --- | --- |
| C[C@](N)(CCc1ccc(Sc2cc(C(F)(F)F)ccc2O)cc1Cl)COP(=O)(O)O [Example 11, (S)-2-amino-4-[2-chloro-4-(2-hydroxy-5-trifluoromethylphenylthio)phenyl]-2-methylbutylphosphoric acid monoester] | ++ (50%>suppression rate≧30%) |
| C=CC[C@](N)(CCc1ccc(Sc2cc(C(F)(F)F)ccc2O)cc1Cl)COP(=O)(O)O [Example 12, (R)-2-allyl-2-amino-4-[2-chloro-4-(2-hydroxy-5-trifluoromethylphenylthio)phenyl]-butylphosphoric acid monoester] | ++ (50%>suppression rate≧30%) |

same assay, conditions: 10 mg/kg i.v. twice (15 min before and 2 h after LPS), 18 h after LPS, mouse mesenteric lymph nodes

| Structure (SMILES) | Suppression Rate for Mesenteric Lymph Nodes |
| --- | --- |
| C[C@](N)(CCc1ccc(Sc2cc(C(F)(F)F)ccc2O)cc1Cl)COP(=O)(O)O [Example 11, (S)-2-amino-4-[2-chloro-4-(2-hydroxy-5-trifluoromethylphenylthio)phenyl]-2-methylbutylphosphoric acid monoester] | ++ (50%>suppression rate≧30%) |
| C=CC[C@](N)(CCc1ccc(Sc2cc(C(F)(F)F)ccc2O)cc1Cl)COP(=O)(O)O [Example 12, (R)-2-allyl-2-amino-4-[2-chloro-4-(2-hydroxy-5-trifluoromethylphenylthio)phenyl]-butylphosphoric acid monoester] | + (30%>suppression rate 20%) |

molecular target: T1, Human S1P3 receptor (Homo sapiens, UniProt Q99500); experiment: Suppression of S1P-induced cellular calcium mobilization in human S1P3 receptor-expression CHO cells (Schild plot); type: cell-based; details: Schild plot of S1P EC50 shift; test compound 125 nM, 1.25 μM, 12.5 μM; hS1P3 CHO cells; read-out: S1P3 dissociation constant Kd value
T1 construct: expressed in transfected cells; host or cells: CHO cells (Geneticin-selected)
T1 sequence (Q99500 whole entry): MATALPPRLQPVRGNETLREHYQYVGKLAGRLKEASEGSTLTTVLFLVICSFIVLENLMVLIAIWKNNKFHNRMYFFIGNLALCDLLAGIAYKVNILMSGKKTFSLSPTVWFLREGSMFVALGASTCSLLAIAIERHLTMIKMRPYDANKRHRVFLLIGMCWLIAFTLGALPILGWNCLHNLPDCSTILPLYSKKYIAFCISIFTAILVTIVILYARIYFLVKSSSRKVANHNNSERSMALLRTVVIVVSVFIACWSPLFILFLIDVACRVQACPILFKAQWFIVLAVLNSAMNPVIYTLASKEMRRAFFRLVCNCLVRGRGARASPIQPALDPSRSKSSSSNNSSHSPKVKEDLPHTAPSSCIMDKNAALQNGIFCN
Description: Suppression Effect of Test Compound Against Cellular Calcium Mobilization of Human S1P3 Receptor-Expression Cell by S1P (Sphingosine 1-Phosphoric Acid)
Human S1P3 receptor-expression CHO cells were subcultured in a Ham's F-12 culture medium containing 10% fetal bovine serum, and 300 μg/mL of Geneticin. The human S1P3 receptor-expression CHO cells were subjected to 0.25% trypsinization, then recovered from the dish, and floated in a Ham's F-12 culture medium containing 10% fetal bovine serum, and 300 μg/mL of Geneticin. After that, the human S1P3 receptor-expression CHO cells were disseminated into a 96-well black clear bottom plate (BD Falcon Biocoat) so that 7×10^4/100 μL/well of the human S1P3 receptor-expression CHO cells were disseminated. And then, the human S1P3 receptor-expression CHO cells were cultivated for one night at 37° C. under 5% CO2. The next day, the wells were washed 3 times with 100 μL of PBS containing 0.1% fatty acid-free bovine serum albumin (BSA). The culture medium was exchanged with a Ham's F-12 culture medium containing 0.1% BSA, and then starved of serum for 6 hours in an CO2 incubator at 37° C.
The culture medium was thrown away after the 6 hours. Then, 50 μL/well of a Fluo3 loading buffer was added, and the cultures were cultivated for further 1 hour. The Fluo3 loading buffer was prepared as follows. First, equal amounts of Fluo3-AM (Dojindo) and pluronic F-127 (20% DMSO solution, invitrogen) were mixed. Next, the mixture of Fluo3-AM and pluronic F-127 was added to a Hanks-HEPES buffer (balanced salt solution containing 20 mM HEPES (pH, 7.4), 0.1% BSA (fatty acid-free), and 2.5 mM probenecid) to form a Fluo3 loading buffer having a final Fluo3-AM concentration of 4
After incubating for 1 hour, the cultures were washed 3 times with 100 μL of the Hanks-HEPES buffer. Then, 100 μL of the same buffer in which a test compound (125 nM, 1.25 μM, 12.5 μM) or DMSO had been dissolved was added to the cultures, and then incubated for 30 minutes at 37° C. in a microplate spectrophotofluorometer (FLEX Station) (Molecular Device Co., Ltd.). Then, 25 μL of S1P prepared at 5 times the concentration of the final concentration by serial dilution (final concentration of 0.1 nM, 1 nM, 10 nM, 100 nM, and 1 μM) was added, and the fluorescence based on the Fluo3 due to calcium mobilization was detected and measured at an excitation wavelength of 485 nm and a detection wavelength of 525 nm using the same apparatus. Based on the measurement data, the increase in fluorescence was calculated by subtracting the minimum fluorescence intensity from the maximum fluorescence intensity. The measured increase in fluorescence was used to perform a curve approximation of the relationship between the S1P concentration and the increase in fluorescence using PRISM 4 software (GraphPad). Based on the results, the EC50 value of the compound-untreated and the EC50 value of the compound-treated at each concentration were calculated. Schild Plot analysis was performed based on these values to determine dissociation constant Kd value. In Table 1, 1,000 nmol/L>Kd value≧100 nmol/L is indicated as “+,” 100 nmol/L>Kd value≧10 nmol/L is indicated as “++,” 10 nmol/L>Kd value≧1 nmol/L is indicated as “+++,” and 1 nmol/L>Kd value is indicated as “++++.”

| Structure (SMILES) | Kd |
| --- | --- |
| C[C@](N)(CCc1ccc(Sc2cc(C3CC3)ccc2O)cc1Cl)COP(=O)(O)O [Example 5, (S)-2-amino-4-[2-chloro-4-(5-cyclopropyl-2-hydroxyphenylthio)phenyl]-2-methylbutylphosphoric acid monoester] | 1 to 10 nM |
| CCC[C@](N)(CCc1ccc(Sc2cc(C(C)C)ccc2O)cc1Cl)COP(=O)(O)O [Example 19, (S)-2-amino-4-[2-chloro-4-(2-hydroxy-5-isopropylphenylthio)phenyl]-2-propylbutylphosphoric acid monoester] | 1 to 10 nM |
| CC(C)Oc1ccc(O)c(Sc2ccc(CC[C@](C)(N)COP(=O)(O)O)c(Cl)c2)c1 [Example 8, (S)-2-amino-4-[2-chloro-4-(2-hydroxy-5-isopropoxyphenylthio)phenyl]-2-methylbutylphosphoric acid monoester] | 10 to 100 nM |
| CCCc1ccc(O)c(Sc2ccc(CC[C@@](N)(CCC)COP(=O)(O)O)c(Cl)c2)c1 [Example 18, (S)-2-amino-4-[2-chloro-4-(2-hydroxy-5-propylphenylthio)phenyl]-2-propylbutylphosphoric acid monoester] | 1 to 10 nM |
| CCC[C@](N)(CCc1ccc(Sc2cc(OCc3ccccc3)ccc2O)cc1Cl)COP(=O)(O)O [Example 23, (S)-2-amino-4-[4-(5-benzyloxy-2-hydroxyphenylthio)-2-chlorophenyl]-2-propylbutylphosphoric acid monoester] | 1 to 10 nM |
| C[C@](N)(CCc1ccc(Sc2ccccc2O)cc1Cl)COP(=O)(O)O [Example 14, (S)-2-amino-4-[2-chloro-4-(2-hydroxyphenylthio)phenyl]-2-methylbutylphosphoric acid monoester] | 10 to 100 nM |
| C[C@](N)(CCc1ccc(Sc2cc(OCc3ccccc3)ccc2O)cc1Cl)COP(=O)(O)O [Example 9, (S)-2-amino-4-[4-(5-benzyloxy-2-hydroxyphenylthio)-2-chlorophenyl]-2-methylbutylphosphoric acid monoester] | 1 to 10 nM |
| C[C@](N)(CCc1ccc(Sc2cc(C(F)(F)F)ccc2O)cc1Cl)CCP(=O)(O)O [Example 17, (S)-3-amino-5-[2-chloro-4-(2-hydroxy-5-trifluoromethylphenylthio)phenyl]-3-methylpentylphosphonic acid] | 100 to 1000 nM |
| CCC[C@](N)(CCc1ccc(Sc2cc(C(C)(C)C)ccc2O)cc1Cl)COP(=O)(O)O [Example 21, (S)-2-amino-4-[4-(5-t-butyl-2-hydroxyphenylthio)-2-chlorophenyl]-2-propylbutylphosphoric acid monoester] | < 1 nM |
| C[C@](N)(CCc1ccc(Sc2cc(C(F)(F)F)ccc2O)cc1Cl)COP(=O)(O)O [Example 11, (S)-2-amino-4-[2-chloro-4-(2-hydroxy-5-trifluoromethylphenylthio)phenyl]-2-methylbutylphosphoric acid monoester] | 1 to 10 nM |
| CCC[C@](N)(CCc1ccc(Sc2cc(C3CC3)ccc2O)cc1Cl)COP(=O)(O)O [Example 20, (S)-2-amino-4-[2-chloro-4-(5-cyclopropyl-2-hydroxyphenylthio)phenyl]-2-propylbutylphosphoric acid monoester] | 1 to 10 nM |
| C=CC[C@](N)(CCc1ccc(Sc2cc(C(F)(F)F)ccc2O)cc1Cl)COP(=O)(O)O [Example 12, (R)-2-allyl-2-amino-4-[2-chloro-4-(2-hydroxy-5-trifluoromethylphenylthio)phenyl]-butylphosphoric acid monoester] | < 1 nM |

More lines, now with the values ahead:

| Kd | Structure (SMILES) |
| --- | --- |
| 100 to 1000 nM | COc1ccc(O)c(Sc2ccc(CC[C@](C)(N)COP(=O)(O)O)c(Cl)c2)c1 [Example 6, (S)-2-amino-4-[2-chloro-4-(2-hydroxy-5-methoxyphenylthio)phenyl]-2-methylbutylphosphoric acid monoester] |
| 10 to 100 nM | CCCc1ccc(O)c(Sc2ccc(CC[C@](C)(N)COP(=O)(O)O)c(Cl)c2)c1 [Example 3, (S)-2-amino-4-[2-chloro-4-(2-hydroxy-5-propylphenylthio)phenyl]-2-methylbutylphosphoric acid monoester] |
| 10 to 100 nM | Cc1ccc(O)c(Sc2ccc(CC[C@](C)(N)COP(=O)(O)O)c(Cl)c2)c1 [Example 1, (S)-2-amino-4-[2-chloro-4-(2-hydroxy-5-methylphenylthio)phenyl]-2-methylbutylphosphoric acid monoester] |
| 10 to 100 nM | CCc1ccc(O)c(Sc2ccc(CC[C@](C)(N)COP(=O)(O)O)c(Cl)c2)c1 [Example 2, (S)-2-amino-4-[2-chloro-4-(5-ethyl-2-hydroxyphenylthio)phenyl]-2-methylbutylphosphoric acid monoester] |
| 1 to 10 nM | CC(C)c1ccc(O)c(Sc2ccc(CC[C@](C)(N)COP(=O)(O)O)c(Cl)c2)c1 [Example 4] |
| 10 to 100 nM | C[C@](N)(CCc1ccc(Sc2cc(Cl)ccc2O)cc1Cl)COP(=O)(O)O [Example 10, (S)-2-amino-4-[2-chloro-4-(5-chloro-2-hydroxyphenylthio)phenyl]-2-methylbutylphosphoric acid monoester] |
| 10 to 100 nM | CC(=O)c1ccc(O)c(Sc2ccc(CC[C@](C)(N)COP(=O)(O)O)c(Cl)c2)c1 [Example 16, (S)-4-[4-(5-acetyl-2-hydroxyphenylthio)-2-chlorophenyl]-2-amino-2-methylbutylphosphoric acid monoester] |
| 10 to 100 nM | CCOc1ccc(O)c(Sc2ccc(CC[C@](C)(N)COP(=O)(O)O)c(Cl)c2)c1 [Example 7, (S)-2-amino-4-[2-chloro-4-(5-ethoxy-2-hydroxyphenylthio)phenyl]-2-methylbutylphosphoric acid monoester] |
